For series [1], the target named is T1, cytosolic phospholipase A2 (Homo sapiens, UniProt P47712).
T1 construct: endogenous in cells; host or cells: intact human platelets (thrombocytes)
T1 sequence (P47712 1-749): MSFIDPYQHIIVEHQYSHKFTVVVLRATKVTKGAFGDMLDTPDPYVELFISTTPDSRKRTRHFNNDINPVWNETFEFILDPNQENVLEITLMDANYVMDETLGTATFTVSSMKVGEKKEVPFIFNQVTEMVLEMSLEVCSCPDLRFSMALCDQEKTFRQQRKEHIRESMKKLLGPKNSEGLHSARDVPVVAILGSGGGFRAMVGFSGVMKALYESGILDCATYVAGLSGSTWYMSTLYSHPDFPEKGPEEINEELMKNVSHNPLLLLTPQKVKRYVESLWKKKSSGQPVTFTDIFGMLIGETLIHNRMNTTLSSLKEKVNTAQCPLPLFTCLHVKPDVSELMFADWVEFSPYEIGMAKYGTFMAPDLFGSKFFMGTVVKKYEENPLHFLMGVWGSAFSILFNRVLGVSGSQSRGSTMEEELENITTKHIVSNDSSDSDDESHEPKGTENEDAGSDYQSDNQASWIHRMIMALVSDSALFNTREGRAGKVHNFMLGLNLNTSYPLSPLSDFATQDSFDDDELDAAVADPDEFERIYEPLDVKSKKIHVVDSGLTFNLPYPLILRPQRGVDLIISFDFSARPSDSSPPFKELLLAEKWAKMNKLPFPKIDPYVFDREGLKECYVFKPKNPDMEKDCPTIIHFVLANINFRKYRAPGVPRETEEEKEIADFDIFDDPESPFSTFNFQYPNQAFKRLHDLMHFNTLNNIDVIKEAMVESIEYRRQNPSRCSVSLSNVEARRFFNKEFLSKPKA
Briefly: Inhibition of cytosolic phospholipase A2 in intact human platelets stimulated with calcium ionophor A23187 (arachidonic acid release, HPLC). Format: cell-based. The note with it: concentration of 10 μM, calcium ionophor A23187 stimulation, one collective range for the six compounds, read-out: inhibited the activity of cytosolic phospholipase A2. From the text:
The effectiveness of the compounds according to the invention can be determined by the inhibition of cytosolic phospholipase A2. To this end, cytosolic phospholipase A2 is stimulated in intact human thrombocytes with calcium ionophor A23187 so as to trigger the release of arachidonic acid from the membrane phospholipids. In order to prevent the metabolization of the enzyme product arachidonic acid via the cyclooxygenase route and the 12-lipoxygenase route, the dual cyclooxygenase/12-lipoxygenase-inhibitor 5,8,11,14-eicosatetraynoic acid is added. Following purification by means of solid phase extraction, the released arachidonic acid is determined by reversed phase-HPLC using U.V. detection. The inhibition of the enzyme by a test substance follows from the ratio of the arachidonic acid amounts formed in the presence or absence of the test substance. More detailed information on the test system is made in Example 10.
The effectiveness of the compounds according to the invention can be determined by the inhibition of cytosolic phospholipase A2. The test method used was described earlier (Lehr M. et al., Arch. Pharm. Pharm. Med. Chem. 2000, 333, 312-314). Here, the arachidonic acid formed by cytosolic phospholipase A2 in intact human platelets following stimulation using calcium ionophor A23187 is detected in the presence and absence of test substances.

SMILES strings stand for the structures.

`CCCCCCCCc1ccc(OCC(=O)Cn2ccc3cc(C=O)ccc32)cc1` [Example 16, 1-[3-(4-Octylphenoxy)-2-oxopropyl]indole-5-carbaldehyde]: the melting point (in general, the temperature of the solid-liquid transition) was found to be 96 °C. As for `CCCCCCCCc1ccc(OCC(=O)Cn2cc(C=O)c3cc(C(=O)O)ccc32)cc1`, the melting point was 193 °C. Turning to `CCCCCCCCc1ccc(OCC(=O)Cn2ccc3ccccc32)cc1`, the melting point worked out at 65 °C. As to `CCCCCCCCc1ccc(OCC(=O)Cn2cc(C(C)(C)C)c3ccc(C(=O)O)cc32)cc1` [Example 23, 3-tert-Butyl-1-[3-(4-octylphenoxy)-2-oxopropyl]indole-6-carboxylic acid], the melting point lay in the range of 145 to 146 °C.

Take `CCCCCCCCc1ccc(OCC(=O)Cn2ccc3cc(C#N)ccc32)cc1` [Example 15, 1-(3-(4-Octylphenoxy)-2-oxopropyl]indole-5-carbonitrile]: the melting point worked out at 96 °C.

In the case of `CCCCCCCCc1ccc(OCC(=O)Cn2ccc(C(=O)O)c2)cc1` [Example 6, 1-[3-(4-Octylphenoxy)-2-oxopropyl]pyrrole-3-carboxylic acid], the inhibition at 10 µM in series [1] was in the range of 40 to 95%. As for `CCCCCCCn1ccc2cc(OCC(=O)Cn3ccc4cc(C(N)=O)ccc43)ccc21` [Example 30, 1-[3-(1-Heptylindol-5-yloxy)-2-oxopropyl]indole-5-carbamide], the melting point came to 171 °C. `CCCCCCCCc1ccc(OCC(=O)Cn2cccc2C(=O)O)cc1` [Example 5, 1-[3-(4-Octylphenoxy)-2-oxopropyl]pyrrol-2-carboxylic acid]: the melting point was 157 °C (dec.). Further, in series [1], the inhibition at 10 µM lay in the range of 40 to 95%.

With `CCCCCCCCc1ccc(OCC(=O)Cn2cc(C(=O)OC)c3cc(C(=O)O)ccc32)cc1`, the melting point came to 208 °C. On the same count and under the same terms, as for `CCCCCCCOc1ccc(OCC(=O)Cn2ccc3cc(C(N)=O)ccc32)cc1` [Example 26, 1-[3-(4-Heptyloxyphenoxy)-2-oxopropyl]indole-5-carbamide], the figure is 114 °C. As for `CCCCCCCCc1ccc(OCC(=O)Cn2c(C(=O)O)cc3ccccc32)cc1` [Example 7, 1-[3-(4-Octylphenoxy)-2-oxopropyl]indole-2-carboxylic acid], the melting point stood at 173 °C. Besides, the inhibition at 10 µM in series [1] is 40 to 95%. In turn, `CCCCCCCCc1ccc(OCC(=O)Cn2ccc3cc(Cl)ccc32)cc1` [Example 13, 1-(5-Chloroindol-1-yl)-3-(4-octylphenoxy)propan-2-one] gave a melting point of 77 °C. `CCCCCCCCc1ccc(OCC(=O)Cn2ncc3ccccc32)cc1` showed a melting point of 66 to 67 °C.

For the compound `CCCCCCCCc1ccc(OCC(=O)Cn2cc(Cl)c3cc(C(=O)O)ccc32)cc1` [Example 19, 3-Chloro-1-[3-(4-octylphenoxy)-2-oxopropyl]indole-5-carboxylic acid], the melting point came to 157 °C. On to `CCCCCCCCc1ccc(OCC(=O)Cn2cc(C(=O)O)c3ccccc32)cc1` [Example 8, 1-[3-(4-Octylphenoxy)-2-oxopropyl]indole-3-carboxylic acid], for which the melting point was in the range of 182 to 183 °C. The inhibition at 10 µM in series [1] lay within 40 to 95%. Turning to `CCCCCCCCc1ccc(OCC(=O)Cn2ccc3cc(C(=O)O)ccc32)cc1` [Example 9, 1-[3-(4-Octylphenoxy)-2-oxopropyl]indole-5-carboxylic acid], the inhibition at 10 µM in series [1] fell in the range of 40 to 95%. With `CCCCCCCCc1ccc(OCC(=O)Cn2cc(C(C)=O)c3cc(C(=O)O)ccc32)cc1`, the melting point was determined as 197 °C. `CCCCCCCCc1ccc(OCC(=O)Cn2cccc2)cc1`: the melting point lay in the range of 58 to 59 °C. As to `CCCCCCCCc1ccc(OCC(=O)Cn2cc(C(C)(C)C)c3cc(C(=O)O)ccc32)cc1` [Example 18, 3-tert-Butyl-1-[3-(4-octylphenoxy)-2-oxopropyl]indole-5-carboxylic acid], the melting point lay within 146 to 147 °C.

Regarding `CCCCCCCCc1ccc(OCC(=O)Cn2cccn2)cc1` [Example 2, 1-(4-Octylphenoxy)-3-(pyrazol-1-yl)propan-2-one], the inhibition at 10 µM in series [1] is 40 to 95%.

Regarding `CCCCCCCCc1ccc(OCC(=O)Cn2ccc3cc(C(=O)OC)ccc32)cc1` [Example 17, Methyl-1-(3-(4-octylphenoxy)-2-oxopropyl]indole-5-carboxylate], the melting point came to 118 °C. The compound `CCCCCCCCc1ccc(OCC(=O)Cn2ccc3cc(OC)ccc32)cc1` [Example 14, 1-(5-Methoxyindol-1-yl)-3-(4-octylphenoxy)propan-2-one] gave a melting point of 85 °C.

The values are drawn from US7608633B2, “Heteroaryl-substituted acetone derivatives as inhibitors of phospholipase A2” (Merckle GmbH, priority 2003, dated 2009).
